Data set [1] has as its system Plasmodium falciparum. As to the kind of experiment: Antimalarial activity against chloroquine, mefloquine and pyrimethamine-resistant Plasmodium falciparum TM91C235 by SYBR Green I-based fluorescence assay. In kind it is functional.
The nature of data set [2]: Apparent permeability from apical to basolateral side of dog MDCK cells at 5 uM after 2 hrs by LC/MS/MS analysis. The class given is ADME, cell-based, Canis lupus familiaris.
Data set [3] deals with Plasmodium falciparum. As to the kind of experiment: Antimalarial activity against chloroquine-sensitive and mefloquine-resistant Plasmodium falciparum D6 by SYBR Green I-based fluorescence assay. The class given is functional.
The subject of data set [4] is Plasmodium falciparum. As to the kind of experiment: Antimalarial activity against chloroquine-resistant and mefloquine-sensitive Plasmodium falciparum W2 assessed as inhibition of [3H]hypoxanthine incorporation by liquid scintillation spectrometry. The class given is functional.
The test system of data set [5] is Plasmodium falciparum. As to the kind of experiment: Antimalarial activity against chloroquine, mefloquine and pyrimethamine-resistant Plasmodium falciparum TM91C235 assessed as inhibition of [3H]hypoxanthine incorporation by liquid scintillation spectrometry. In kind it is functional.
The test system of data set [6] is Plasmodium falciparum. The data set is described as follows: Antimalarial activity against chloroquine, mefloquine and pyrimethamine-resistant Plasmodium falciparum TM90C2A assessed as inhibition of [3H]hypoxanthine incorporation by liquid scintillation spectrometry. The class given is functional.
The subject of data set [7] is Plasmodium falciparum. The data set is described as follows: Antimalarial activity against chloroquine-sensitive and mefloquine-resistant Plasmodium falciparum D6 assessed as inhibition of [3H]hypoxanthine incorporation by liquid scintillation spectrometry. In kind it is functional.

Converted amounts (≈) assume the structure as drawn.

The term IC90 denotes the concentration at which the effect reaches the 90% level. Broadly, the Papp A→B is the apparent permeability from the apical to the basolateral side of a cell layer.

`CC(CNC1CCCCC1)NCC(O)c1cc(C(F)(F)F)nc2c(C(F)(F)F)cccc12` (centres undefined): the IC90 in data set [1] is 0.082 mg/L (≈ 0.177 µM); in data set [3], 0.026 mg/L (≈ 0.0561 µM). The Papp A→B at 2 h, 5 µM in data set [2] amounted to 96 nm/s.

In the case of `CC(CNC1CCC1)NCC(O)c1cc(C(F)(F)F)nc2c(C(F)(F)F)cccc12` (centres undefined), the IC90 is 0.0093 mg/L (≈ 0.0214 µM) in data set [1] and 0.0014 mg/L (≈ 0.00322 µM) in data set [3]. Moreover, the Papp A→B at 2 h, 5 µM in data set [2] was 104 nm/s.

In the case of `CC(CNC1CCCC1)NCC(O)c1cc(C(F)(F)F)nc2c(C(F)(F)F)cccc12` (centres undefined), the IC90 came out at 0.124 mg/L (≈ 0.276 µM) in data set [1] and 0.03 mg/L (≈ 0.0667 µM) in data set [3]. For the same molecule, in data set [2], the apical-to-basolateral permeability (Papp A→B) at 2 h, 5 µM is 111 nm/s.

`O=C1NCCC1N(CCNCC(O)c1cc(C(F)(F)F)nc2c(C(F)(F)F)cccc12)C1CCNC1=O` (centres undefined): the IC90 in data set [4] was 0.487 mg/L (≈ 0.913 µM); in data set [5], over 0.5 mg/L; in data set [6], over 0.5 mg/L; in data set [7] it was over 0.5 mg/L.

For `NCCCNCCNCC(O)c1cc(C(F)(F)F)nc2c(C(F)(F)F)cccc12` (centres undefined), the IC90 is over 0.5 mg/L in data set [4], over 0.5 mg/L in data set [5], over 0.5 mg/L in data set [6] and 0.38 mg/L (≈ 0.895 µM) in data set [7].

With `CN(C)CCNCC(O)c1cc(C(F)(F)F)nc2c(C(F)(F)F)cccc12` (centres undefined), the IC90 in data set [4], in data set [5], in data set [6] and in data set [7] was over 0.5 mg/L in each case.

As for `CNCCNCC(O)c1cc(C(F)(F)F)nc2c(C(F)(F)F)cccc12` (centres undefined), the IC90 is 0.481 mg/L (≈ 1.26 µM) in data set [4], over 0.5 mg/L in data set [5], over 0.5 mg/L in data set [6] and over 0.5 mg/L in data set [7].

Take `OC(CNCCNc1ccccc1)c1cc(C(F)(F)F)nc2c(C(F)(F)F)cccc12` (centres undefined): the IC90 in data set [1] was 0.07 mg/L (≈ 0.158 µM); in data set [3], 0.028 mg/L (≈ 0.0631 µM). For the same molecule, in data set [2], the Papp A→B at 2 h, 5 µM came to 130 nm/s.

With `NCCNCC(O)c1cc(C(F)(F)F)nc2c(C(F)(F)F)cccc12` (centres undefined), the IC90 in data set [1] worked out at 1.14 mg/L (≈ 3.11 µM); in data set [3], 0.988 mg/L (≈ 2.69 µM). Also, the Papp A→B at 2 h, 5 µM in data set [2] stood at 31 nm/s.

Consider `OC(CNCCN(C1CCCCC1)C1CCCCC1)c1cc(C(F)(F)F)nc2c(C(F)(F)F)cccc12` (centres undefined), for which the figures for the IC90 in data set [1] and in data set [3] were 0.022 mg/L (≈ 0.0414 µM) and 0.0093 mg/L (≈ 0.0175 µM), respectively. Moreover, the Papp A→B at 2 h, 5 µM in data set [2] came out at 247 nm/s.

As to `CC(C)NCCNCC(O)c1cc(C(F)(F)F)nc2c(C(F)(F)F)cccc12` (centres undefined), the IC90 was 0.032 mg/L (≈ 0.0782 µM) in data set [1] and 0.012 mg/L (≈ 0.0293 µM) in data set [3]. Besides, in data set [2], the Papp A→B at 2 h, 5 µM is 127 nm/s.

In the case of `OC(CNCCNC1CC1)c1cc(C(F)(F)F)nc2c(C(F)(F)F)cccc12` (centres undefined), the IC90 was 0.128 mg/L (≈ 0.314 µM) in data set [1] and 0.041 mg/L (≈ 0.101 µM) in data set [3]. Besides, the Papp A→B at 2 h, 5 µM in data set [2] was determined as 28 nm/s.

On to `CC(C)(C)NCCNCC(O)c1cc(C(F)(F)F)nc2c(C(F)(F)F)cccc12` (centres undefined), for which the values for the 90% effect concentration (IC90) in data set [1] and in data set [3] were 0.504 mg/L (≈ 1.19 µM) and 0.243 mg/L (≈ 0.574 µM), respectively. Moreover, in data set [2], the Papp A→B at 2 h, 5 µM was 112 nm/s.

Take `OC(CNCCNC1CCCC1)c1cc(C(F)(F)F)nc2c(C(F)(F)F)cccc12` (centres undefined): the IC90 in data set [1] stood at 0.198 mg/L (≈ 0.455 µM); in data set [3], 0.11 mg/L (≈ 0.253 µM). Besides, the Papp A→B at 2 h, 5 µM in data set [2] came to 30 nm/s.

Regarding `OC(CNCCNC1CCCCC1)c1cc(C(F)(F)F)nc2c(C(F)(F)F)cccc12` (centres undefined), the IC90 in data set [1] amounted to 0.142 mg/L (≈ 0.316 µM); in data set [3] it was 0.122 mg/L (≈ 0.271 µM). In addition, the Papp A→B at 2 h, 5 µM in data set [2] came out at 27 nm/s.

As to `CC(C)N(C)CCNCC(O)c1cc(C(F)(F)F)nc2c(C(F)(F)F)cccc12` (centres undefined), the IC90 came to 0.079 mg/L (≈ 0.187 µM) in data set [1] and 0.044 mg/L (≈ 0.104 µM) in data set [3]. Further, the Papp A→B at 2 h, 5 µM in data set [2] came out at 90.3 nm/s.

As to `OC(CNCCNC1CCC1)c1cc(C(F)(F)F)nc2c(C(F)(F)F)cccc12` (centres undefined), the IC90 was found to be 0.138 mg/L (≈ 0.327 µM) in data set [1] and 0.081 mg/L (≈ 0.192 µM) in data set [3]. In addition, the apical-to-basolateral permeability (Papp A→B) at 2 h, 5 µM in data set [2] stood at 85.4 nm/s.

As to `OC(CNC[C@]12CC[C@H](C1)NC2)c1cc(C(F)(F)F)nc2c(C(F)(F)F)cccc12` (some centres undefined), the IC90 in data set [4] was 0.57 mg/L (≈ 1.32 µM); in data set [5], over 0.5 mg/L; in data set [6], over 0.5 mg/L; in data set [7], over 0.5 mg/L.

Turning to `OC(NC[C@H]1CCCN1)c1cc(C(F)(F)F)nc2c(C(F)(F)F)cccc12` (some centres undefined), the concentration for an effect of 90% (IC90) in data set [4] was determined as 0.008 mg/L (≈ 0.0203 µM); in data set [5], 0.074 mg/L (≈ 0.188 µM); in data set [6] it was 0.054 mg/L (≈ 0.137 µM); in data set [7], 0.04 mg/L (≈ 0.102 µM).

Regarding `OC(NC[C@]12CC[C@@H](C1)NC2)c1cc(C(F)(F)F)nc2c(C(F)(F)F)cccc12` (some centres undefined), the IC90 in data set [4] is 0.275 mg/L (≈ 0.656 µM); in data set [5], 0.26 mg/L (≈ 0.62 µM); in data set [7], 0.075 mg/L (≈ 0.179 µM).

As for `OC(CNCCNCc1ccccc1)c1cc(C(F)(F)F)nc2c(C(F)(F)F)cccc12` (centres undefined), the IC90 turned out to be 0.04 mg/L (≈ 0.0874 µM) in data set [1], 0.006 mg/L (≈ 0.0131 µM) in data set [4], 0.025 mg/L (≈ 0.0547 µM) in data set [7] and 0.029 mg/L (≈ 0.0634 µM) in data set [3]. The Papp A→B at 2 h, 5 µM in data set [2] was 85 nm/s.

In the case of `CC1C(NCC(O)c2cc(C(F)(F)F)nc3c(C(F)(F)F)cccc23)CC2CC1C2(C)C` (centres undefined), the IC90 is 0.019 mg/L (≈ 0.0413 µM) in data set [5], 0.016 mg/L (≈ 0.0347 µM) in data set [6] and 0.014 mg/L (≈ 0.0304 µM) in data set [7].

Values taken from ChEMBL document CHEMBL1821574, “Structure-activity relationships of 4-position diamine quinoline methanols as intermittent preventative treatment (IPT) against Plasmodium falciparum” (J Med Chem, 2011).
